Key:
Type in all cases: in vivo
[1] = tested on: Plutella xylostella (Diamond Back Moth); assay: Plutella xylostella (Diamond Back Moth), artificial diet; conditions: 192 h, application rate of 200 ppm, eggs on treated artificial diet, 8 days after infestation, read-out: effect in at least one of the two categories (mortality or growth inhibition)
Protocol: Example B9: Plutella xylostella (Diamond Back Moth)
24-well microtiter plates with artificial diet were treated with aqueous test solutions prepared from 10′000 ppm DMSO stock solutions by pipetting. After drying, Plutella eggs were pipetted through a plastic stencil onto a gel blotting paper and the plate was closed with it. The samples were assessed for mortality and growth inhibition in comparison to untreated samples 8 days after infestation.

[2] = tested on: Diabrotica balteata (Corn Root Worm); assay: whole plant or invertebrate; conditions: 96 h, application rate of 200 ppm, L2 larvae on sprayed maize sprouts, 4 days after infestation, read-out: effect in at least one of the two categories (mortality or growth inhibition)
Protocol: Example B3: Diabrotica balteata (Corn Root Worm)
Maize sprouts placed onto an agar layer in 24-well microtiter plates were treated with aqueous test solutions prepared from 10′000 ppm DMSO stock solutions by spraying. After drying, the plates were infested with L2 larvae (6 to 10 per well). The samples were assessed for mortality and growth inhibition in comparison to untreated samples 4 days after infestation.

[3] = tested on: Myzus persicae (Green Peach Aphid); assay: Myzus persicae (Green Peach Aphid): feeding/contact activity, sunflower leaf discs; conditions: foliar, 144 h, application rate of 200 ppm, mixed ages on sprayed sunflower leaf discs, 6 days after infestation, read-out: mortality
Protocol: Example B6: Myzus persicae (Green Peach Aphid): Feeding/Contact Activity
Sunflower leaf discs were placed onto agar in a 24-well microtiter plate and sprayed with aqueous test solutions prepared from 10′000 ppm DMSO stock solutions. After drying, the leaf discs were infested with an aphid population of mixed ages. The samples were assessed for mortality 6 days after infestation.

[4] = tested on: Myzus persicae (Green Peach Aphid); assay: Myzus persicae (Green Peach Aphid): systemic activity, pea seedlings; conditions: 144 h, test rate of 24 ppm, systemic, roots of infested pea seedlings in test solution, 6 days, read-out: mortality
Protocol: Example B7: Myzus persicae (Green Peach Aphid). Systemic Activity
Roots of pea seedlings infested with an aphid population of mixed ages were placed directly into aqueous test solutions prepared from 10′000 DMSO stock solutions. The samples were assessed for mortality 6 days after placing seedlings into test solutions.

[5] = tested on: Myzus persicae (Green Peach Aphid); assay: Myzus persicae (Green Peach Aphid): intrinsic activity, sucrose solution; conditions: 120 h, test rate of 12 ppm, intrinsic, mixed with sucrose solution under Parafilm, 5 days after infestation, read-out: mortality
Procedure, shortened: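 Compounds from 10′000 ppm DMSO stocks mixed with sucrose solution in wells sealed with Parafilm; aphid-infested pea seedlings placed on the Parafilm and the assembly inverted so aphids feed through the membrane. Mortality assessed 5 days after infestation.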

[6] = tested on: Tetranychus urticae (Two-Spotted Spider Mite); assay: whole plant or invertebrate; conditions: foliar, 192 h, application rate of 200 ppm, mixed population (mobile stages) on sprayed bean leaf discs, 8 days after infestation, read-out: mortality
Protocol: Example B11: Tetranychus urticae (Two-Spotted Spider Mite): Feeding/Contact Activity
Bean leaf discs on agar in 24-well microtiter plates were sprayed with aqueous test solutions prepared from 10′000 ppm DMSO stock solutions. After drying the leaf discs were infested with a mite population of mixed ages. The samples were assessed for mortality on mixed population (mobile stages) 8 days after infestation.

[7] = tested on: Bemisia tabaci (Cotton White Fly); assay: Bemisia tabaci (Cotton White Fly): feeding/contact activity, cotton leaf discs; conditions: foliar, 144 h, application rate of 200 ppm, adult white flies on sprayed cotton leaf discs, 6 days after incubation, read-out: mortality
Protocol: Example B1: Bemisia tabaci (Cotton White Fly): Feeding/Contact Activity
Cotton leaf discs were placed on agar in 24-well microtiter plates and sprayed with aqueous test solutions prepared from 10′000 ppm DMSO stock solutions. After drying the leaf discs were infested with adult white flies. The samples were checked for mortality 6 days after incubation.

[8] = tested on: Euschistus heros (Neotropical Brown Stink Bug); assay: Euschistus heros (Neotropical Brown Stink Bug), soybean leaves; conditions: 120 h, application rate of 200 ppm, N2 nymphs on sprayed soybean leaves, 5 days after infestation, read-out: effect in at least one of the two categories (mortality or growth inhibition)
Protocol: Example B4: Euschistus heros (Neotropical Brown Stink Bug)
Soybean leaves on agar in 24-well microtiter plates were sprayed with aqueous test solutions prepared from 10′000 ppm DMSO stock solutions. After drying the leaves were infested with N2 nymphs. The samples were assessed for mortality and growth inhibition in comparison to untreated samples 5 days after infestation.

[9] = tested on: Frankliniella occidentalis (Western Flower Thrips); assay: Frankliniella occidentalis (Western Flower Thrips): feeding/contact activity, sunflower leaf discs; conditions: foliar, 168 h, application rate of 200 ppm, mixed ages on sprayed sunflower leaf discs, 7 days after infestation
Protocol: Example B5: Frankliniella occidentalis (Western Flower Thrips): Feeding/Contact Activity
Sunflower leaf discs were placed on agar in 24-well microtiter plates and sprayed with aqueous test solutions prepared from […] stock solutions. After drying the leaf discs were infested with a Frankliniella population of mixed ages. The samples were assessed for mortality 7 days after infestation.

Spodoptera littoralis = Spodoptera littoralis (Egyptian Cotton Leaf Worm), cotton leaf discs; conditions: foliar, 72 h, application rate of 200 ppm, L1 larvae on sprayed cotton leaf discs, 3 days after infestation, read-out: control (at least one of mortality, anti-feedant effect, growth inhibition)
Protocol: Example B10: Spodoptera littoralis (Eaytian Cotton Leaf Worm)
Cotton leaf discs were placed onto agar in 24-well microtiter plates and sprayed with aqueous test solutions prepared from 10′000 ppm DMSO stock solutions. After drying the leaf discs were infested with five L1 larvae. The samples were assessed for mortality, anti-feeding effect, and growth inhibition in comparison to untreated samples 3 days after infestation. Control of Spodoptera littoralis by a test sample is given when at least one of the categories mortality, anti-feedant effect, and growth inhibition is higher than the untreated sample.

Cc1ncc(OC[C@H](C)NS(=O)(=O)C(F)(F)F)cc1C(=O)NC(C)c1ncnn1-c1ccc(C#N)cn1 (stereo partly drawn) [Compound P-27, N-[1-[2-(5-cyano-2-pyridyl)-1,2,4-triazol-3-yl]ethyl]-2-methyl-5-[(2S)-2-(trifluoromethylsulfonylamino)propoxy]pyridine-3-carboxamide]
≥ 80%: percent effect (mortality or growth inhibition) at 200 ppm [1]

CCN1OC[C@@H](NC(=O)c2cc(OC[C@H](C)NS(=O)(=O)C(F)(F)F)ncc2Br)C1=O [Compound P-84, 5-bromo-N-[(4R)-2-ethyl-3-oxo-isoxazolidin-4-yl]-2-[(2S)-2-(trifluoromethylsulfonylamino)propoxy]pyridine-4-carboxamide]
≥ 80%: percent effect (mortality or growth inhibition) at 200 ppm [2]

C[C@@H](COc1cnc(Cl)c(C(=O)NC23CC(C2)C3)c1)NS(=O)(=O)C(F)(F)F [Compound P-5, N-(1-bicyclo[1.1.1]pentanyl)-2-chloro-5-[(2S)-2-(trifluoromethylsulfonylamino)propoxy]pyridine-3-carboxamide]
≥ 80%: mortality at 200 ppm [3] | mortality at 24 ppm [4] | mortality at 12 ppm [5] | percent effect (mortality or growth inhibition) at 200 ppm [1] | mortality at 200 ppm [6]

C[C@@H](COc1cnc(Cl)c(C(=O)Nc2ccc(C#N)cc2F)c1)NS(=O)(=O)C(F)(F)F [Compound P-22, 2-chloro-N-(4-cyano-2-fluoro-phenyl)-5-[(2S)-2-(trifluoromethylsulfonylamino)propoxy]pyridine-3-carboxamide]
≥ 80%: percent effect (mortality or growth inhibition) at 200 ppm [2] | mortality at 200 ppm [6]

Cc1ncc(OC[C@H](C)NS(=O)(=O)C(F)(F)F)cc1C(=O)NOCC1CC1 [Compound P-41, N-(cyclopropylmethoxy)-2-methyl-5-[(2S)-2-(trifluoromethylsulfonylamino)propoxy]pyridine-3-carboxamide]
≥ 80%: percent effect (mortality or growth inhibition) at 200 ppm [1]

C[C@@H](COc1cnc(Cl)c(C(=O)NC2CC2)c1)NS(=O)(=O)C(F)(F)F [Compound P-1, 2-chloro-N-cyclopropyl-5-[(2S)-2-(trifluoromethylsulfonylamino)propoxy]pyridine-3-carboxamide]
≥ 80%: mortality at 200 ppm [7] | percent effect (mortality or growth inhibition) at 200 ppm [2] | percent effect (mortality or growth inhibition) at 200 ppm [8] | mortality at 200 ppm [9] | mortality at 200 ppm [3] | mortality at 24 ppm [4] | mortality at 12 ppm [5] | percent effect (mortality or growth inhibition) at 200 ppm [1] | mortality at 200 ppm [6]

C[C@@H](COc1cnc(Cl)c(C(=O)NC2(C#N)CC2)c1)N(C)S(=O)(=O)C(F)(F)F [Compound P-7, 2-chloro-N-(1-cyanocyclopropyl)-5-[(2S)-2-[methyl(trifluoromethylsulfonyl)amino]propoxy]pyridine-3-carboxamide]
≥ 80%: mortality at 200 ppm [7] | percent effect (mortality or growth inhibition) at 200 ppm [2] | mortality at 200 ppm [9] | mortality at 24 ppm [4] | mortality at 12 ppm [5]

Cc1cc(F)ccc1NC(=O)c1cc(OC[C@H](C)NS(=O)(=O)C(F)(F)F)cnc1Cl [Compound P-60, 2-chloro-N-(4-fluoro-2-methyl-phenyl)-5-[(2S)-2-(trifluoromethylsulfonylamino)propoxy]pyridine-3-carboxamide]
≥ 80%: mortality at 12 ppm [5] | percent effect (mortality or growth inhibition) at 200 ppm [1] | percent control (mortality, anti-feedant effect or growth inhibition) at 200 ppm (Spodoptera littoralis) | mortality at 200 ppm [6]

C[C@@H](COc1cnc(Cl)c(C(=O)Nc2ccc(F)cc2F)c1)NS(=O)(=O)C(F)(F)F [Compound P-23, 2-chloro-N-(2,4-difluorophenyl)-5-[(2S)-2-(trifluoromethylsulfonylamino)propoxy]pyridine-3-carboxamide]
≥ 80%: mortality at 200 ppm [7] | mortality at 12 ppm [5] | percent effect (mortality or growth inhibition) at 200 ppm [1] | mortality at 200 ppm [6]

CCN1OC[C@@H](NC(=O)c2cc(OC[C@H](C)NS(=O)(=O)C(F)(F)F)cnc2Cl)C1=O [Compound P-65, 2-chloro-N-[(4R)-2-ethyl-3-oxo-isoxazolidin-4-yl]-5-[(2S)-2-(trifluoromethylsulfonylamino)propoxy]pyridine-3-carboxamide]
≥ 80%: percent control (mortality, anti-feedant effect or growth inhibition) at 200 ppm (Spodoptera littoralis) | mortality at 200 ppm [6]

COCN([C@@H](C)COc1cnc(Cl)c(C(=O)NC2CC2)c1)S(=O)(=O)C(F)(F)F [Compound P-64, 2-chloro-N-cyclopropyl-5-[(2S)-2-[methoxymethyl(trifluoromethylsulfonyl)amino]propoxy]pyridine-3-carboxamide]
≥ 80%: mortality at 200 ppm [7] | percent effect (mortality or growth inhibition) at 200 ppm [2] | percent effect (mortality or growth inhibition) at 200 ppm [8] | mortality at 200 ppm [9] | mortality at 200 ppm [3] | mortality at 24 ppm [4] | mortality at 12 ppm [5] | mortality at 200 ppm [6]

C[C@@H](COc1cnc(Cl)c(C(=O)Nc2ccc(Cl)cc2F)c1)NS(=O)(=O)C(F)(F)F [Compound P-25, 2-chloro-N-(4-chloro-2-fluoro-phenyl)-5-[(2S)-2-(trifluoromethylsulfonylamino)propoxy]pyridine-3-carboxamide]
≥ 80%: percent effect (mortality or growth inhibition) at 200 ppm [1] | mortality at 200 ppm [6]

C[C@@H](COc1cnc(Cl)c(C(=O)NC2(C#N)CC2)c1)N(C(=O)OC(C)(C)C)S(=O)(=O)C(F)(F)F [Compound P-6, tert-butyl N-[(1S)-2-[[6-chloro-5-[(1-cyanocyclopropyl)carbamoyl]-3-pyridyl]oxy]-1-methyl-ethyl]-N-(trifluoromethylsulfonyl)carbamate]
≥ 80%: mortality at 200 ppm [7] | percent effect (mortality or growth inhibition) at 200 ppm [8] | mortality at 200 ppm [9] | mortality at 200 ppm [3] | mortality at 24 ppm [4] | mortality at 12 ppm [5] | mortality at 200 ppm [6]

Cc1nc(C(C)NC(=O)c2cc(OC[C@H](C)NS(=O)(=O)C(F)(F)F)cnc2C)no1 (stereo partly drawn) [Compound P-38, 2-methyl-N-[1-(5-methyl-1,2,4-oxadiazol-3-yl)ethyl]-5-[(2S)-2-(trifluoromethylsulfonylamino)propoxy]pyridine-3-carboxamide]
≥ 80%: percent effect (mortality or growth inhibition) at 200 ppm [1]
